Test results taken from patent US10260068B2, “Prophylactic agent and therapeutic agent for fibrodysplasia ossificans progressiva” (Sumitomo Dainippon Pharma Co., Ltd., priority 2014, dated 2019).
Where a chain is given by its changes, count along the chain named. d = 2'-deoxy (DNA); r = 2'-OH (RNA)

Tests used:
BMP responsive sequence = assay: Luciferase reporter after siRNA knockdown of ACVR1 or BMPR1A in FOP patient derived cells treated with activin A; format: cell-based, human; conditions: activin A 16 hours
Experimental: Patient iPS cell line-derived mesenchymal stem cell-like cells were prepared by the same method as Example 1. The cells were transfected with a Firefly luciferase reporter plasmid having the BMP responsive sequence in the promoter region, a plasmid having a nucleic acid sequence coding for Renilla luciferase downstream of the CMV promoter, as an internal standard, and siRNA for ACVR1 or BMPR1A, using a Lipofectamine 2000 (product of Invitrogen Corp.), for knockdown of ACVR1 or BMPR1A expression. BMPR1A is a type I receptor that transmits the BMP signal. The siRNA used for knockdown was siRNA purchased from Applied Biosystems, having two different sequences for each gene (Catalog Nos. ACVR1:S975, S976, BMPR1A:S281, S282). The cells were also cultured for 16 hours with addition of activin A in the same manner as Example 1. The cells were then solubilized and the luciferase activity was measured. In FIG. 5, the bar graph indicates the mean values for each treated group, and the error bars represent S.D. Here, the sequences of the siRNA used for the test were S975: sense strand: 5′-GGAUCAUUCGUGUACAUCAtt-3′ (SEQ ID NO: 37), antisense strand: 5′-UGAUGUACACGAAUGAUCCaa-3′ (SEQ ID NO: 38), S976: sense strand: 5′-GUUGCUCUCCGAAAAUUUAtt-3′ (SEQ ID NO: 39), antisense strand: 5′-UAAAUUUUCGGAGAGCAACtc-3′ (SEQ ID NO: 40), S281: sense strand: 5′-GGCCGAUAUGGAGAAGUAUtt-3′ (SEQ ID NO: 41), antisense strand: 5′-AUACUUCUCCAUAUCGGCCtt-3′ (SEQ ID NO: 42), S282: sense strand: 5′-GAAUCUGGAUAGUAUGCUUtt-3′ (SEQ ID NO: 43), antisense strand: 5′-AAGCAUACUAUCCAGAUUCtg-3′ (SEQ ID NO: 44). The sequence portions printed in lowercase represent the overhang portions, as portions where the ribose backbone has been replaced with a deoxyribose backbone.

[1] = molecular target: T1, FOP patient-derived ACVR1 (Homo sapiens, UniProt Q04771, R206H); assay: Luciferase reporter (BMP responsive sequence) transcription activity via ACVR1 in FOP patient derived cells; format: cell-based; conditions: ligand 1, 10, 100 ng/mL, 16 hours, significant at 10 and 100 ng/mL vs untreated group
T1 construct: The patient cells were confirmed to be cells having a typical FOP-associated mutation in the ACVR1 gene; endogenous in cells; host or cells: mesenchymal stem cell-like cells differentiated from an FOP patient-derived iPS cell line
T1 sequence (Q04771 21-509 R206H): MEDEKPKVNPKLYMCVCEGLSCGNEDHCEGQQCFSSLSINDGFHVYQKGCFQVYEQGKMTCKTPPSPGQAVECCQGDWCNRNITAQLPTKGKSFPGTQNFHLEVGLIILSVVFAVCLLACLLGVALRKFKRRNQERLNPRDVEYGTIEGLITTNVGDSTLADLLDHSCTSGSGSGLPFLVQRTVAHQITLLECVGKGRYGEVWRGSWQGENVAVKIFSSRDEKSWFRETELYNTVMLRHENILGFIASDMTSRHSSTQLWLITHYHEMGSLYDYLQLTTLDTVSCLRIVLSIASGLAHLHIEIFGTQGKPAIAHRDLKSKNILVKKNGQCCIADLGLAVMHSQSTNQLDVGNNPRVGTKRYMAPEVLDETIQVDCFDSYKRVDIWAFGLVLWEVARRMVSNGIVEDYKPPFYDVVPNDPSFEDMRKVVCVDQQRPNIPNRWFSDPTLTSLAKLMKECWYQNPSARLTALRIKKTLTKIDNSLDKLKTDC
Source text: (§1) Following the method of Yamanaka et al. (Cell, 2007, 131 (5), […]), FOP patient-derived iPS cells (hereunder also referred to as “patient-derived iPS cell line”) were established. The patient cells were confirmed to be cells having a typical FOP-associated mutation in the ACVR1 gene. The mutation is a substitution of the 206th arginine residue of the amino acid sequence of ACVR1 (the amino acid sequence listed as SEQ ID NO: 10) with a histidine residue. Next, for use as a control, an iPS cell line with the ACVR1 gene mutation repaired to the normal type (wild type) by gene repair by a BAC knockin vector (hereunder also referred to as “gene-corrected iPS cell clone” or “gene-rescued iPS cell clone”) was established.
(§2) The patient-derived iPS cell line and gene-corrected iPS cell line were cultured on the matrix of a Matrigel coated plate (trade name: Growth Factor Reduced (GFR)BD Matrigel® by Becton & Dickinson), using mTeSR1 (Stem Cell Technologies) for 2 days under feeder-free conditions. Next, using serum-free medium [F12 Nutrient Mixture (product of Gibco)/Iscove's Modified Dulbecco's Medium (IMDM) (product of Sigma-Aldrich Japan, KK.)/0.5% bovine serum albumin (BSA) (product of Sigma-Aldrich Japan, KK.)/1% Chemically Defined Lipid (CD-Lipid) (product of Gibco, trade name: Chemically Defined Lipid Concentrate)/15 μg/mL apotransferrin (product of Sigma-Aldrich Japan, KK., trade name: apo-Transferrin human)/7 μg/mL insulin (product of Wako Pure Chemical Industries, Ltd., trade name: Insulin, Human, recombinant)/0.45 mM 1-Thioglycerol (product of Sigma-Aldrich Japan, KK.)] with addition of 10 μM SB-431542 (product of Selleck Chemicals) and 1 μM CHIR99021 (product of Wako Pure Chemical Industries, Ltd.), the patient-derived iPS cell line and gene-corrected iPS cell line were further cultured for 1 week under feeder-free conditions for differentiation to neural crest cells. […]
(§3) After mixing Firefly luciferase reporter plasmid having the BMP responsive sequence in the promoter region (J. Biol. Chem., 2002, 277(7), 4883-4891) and a plasmid having a nucleic acid sequence coding for Renilla luciferase downstream from CMV promoter, as an internal standard (product of Promega Corp., trade name: phRL-CMV Vector), FuGene® HD (Promega Corp.) was used for transfection into the mesenchymal stem cell-like cells. […] Next, the luciferase activity was measured according to the protocol provided with a Dual-Glo Luciferase Assay System (product of Promega Corp.). The luminescence was detected using an EnVision Multilabel Counter (product of Perkin-Elmer). […]

wild type ACVR1 = molecular target: T2, wild type ACVR1 (Homo sapiens, UniProt Q04771); assay: Luciferase reporter (BMP responsive sequence) transcription activity in gene-corrected clone derived cells; format: cell-based; conditions: ligand 1, 10, 100 ng/mL, 16 hours
T2 construct: an iPS cell line with the ACVR1 gene mutation repaired to the normal type (wild type) by gene repair by a BAC knockin vector; endogenous in cells; host or cells: mesenchymal stem cell-like cells differentiated from the gene-corrected iPS cell clone
T2 sequence (Q04771 21-509): T1 sequence (Q04771 21-509 R206H) with H186R
Source text: as §1, §2, §3

[2] = system: FOP patient derived cells; assay: Evaluation of binding inhibitors: chondrocyte differentiation of FOP patient derived cells in copresence of human activin A; format: cell-based; conditions: copresence of 30 ng/mL human activin A, 6 days; vs activin-treated group
Experimental: Patient iPS cell line-derived mesenchymal stem cell-like cells were prepared by the same method as Example 1. The mesenchymal stem cell-like cells were cultured for 6 days by the same method as Example 3, for differentiation to chondrocytes. The effect of each factor on differentiation to chondrocytes was examined, with neutralizing antibody for human activin A (product of R&D Systems, Inc., trade name: Human/Mouse/Rat Activin A βA subunit Antibody), follistatin (product of R&D Systems, Inc., trade name: Recombinant Human Follistatin 315 as 30-344), follistatin-like 3 (product of R&D Systems, Inc., trade name: Recombinant Human Follistatin-related Gene Protein/FLRG), ACVR2A-Fc chimeric protein (product of R&D Systems, Inc., trade name: Recombinant Human Activin RIIA Fc Chimera (CHO)), or ACVR2B-Fc chimeric protein (product of R&D Systems, Inc., trade name: Recombinant Human Activin RIIB Fc Chimera), in the copresence of 30 ng/mL of human activin A. The ACVR2A-Fc chimeric protein is a fusion protein in which a polypeptide fragment having the amino acid sequence of positions 20 to 134 of the amino acid sequence listed as SEQ ID NO: 12, and the Fc region of the human-derived antibody, are bonded via a linker sequence (Ile-Glu-Gly-Arg-Met-Asp). The ACVR2B-Fc chimeric protein is a fusion protein in which a polypeptide fragment having the amino acid sequence of positions 19 to 134 of the amino acid sequence listed as SEQ ID NO: 14, and the Fc region of the human-derived antibody, are bonded via a linker sequence (Ile-Glu-Gly-Arg-Met-Asp). The extent of differentiation to chondrocytes was evaluated by Alcian blue staining and sulfated glycosaminoglycan assay, similar to Example 3. In FIG. 6(B), the bar graph indicates the mean values for each treated group, and the error bars represent S.D.

ACVR1-2: siRNA for ACVR1 (Applied Biosystems S976), SEQ ID NO: 39/40 (chain 1 GUUGCUCUCCGAAAAUUUATT; chain 2 UAAAUUUUCGGAGAGCAACTC; sugars from the 5' end r19 d2, backbone not given here)
transcription activation of the BMP responsive sequence by human activin A after siRNA knockdown (BMP responsive sequence): disappeared

ACVR1-1: siRNA for ACVR1 (Applied Biosystems S975), SEQ ID NO: 37/38 (chain 1 GGAUCAUUCGUGUACAUCATT; chain 2 UGAUGUACACGAAUGAUCCAA; sugars from the 5' end r19 d2, backbone not given here)
transcription activation of the BMP responsive sequence by human activin A after siRNA knockdown (BMP responsive sequence): disappeared

human activin B: Recombinant Human Activin B (R&D Systems); homodimer of βB chains
transcription activity via ACVR1 (firefly/Renilla luciferase activity, BMP responsive sequence) [1]: significantly increased
transcription activity via ACVR1 (firefly/Renilla luciferase activity, BMP responsive sequence) (wild type ACVR1): not seen

ACVR2A-Fc chimeric protein: Fusion of positions 20 to 134 of SEQ ID NO: 12 with human antibody Fc region via linker Ile-Glu-Gly-Arg-Met-Asp
differentiation of FOP patient derived cells to chondrocytes (Alcian blue staining, sulfated glycosaminoglycan assay) [2]: inhibited

BMPR1A-2: siRNA for BMPR1A (Applied Biosystems S282), SEQ ID NO: 43/44 (chain 1 GAAUCUGGAUAGUAUGCUUTT; chain 2 AAGCAUACUAUCCAGAUUCTG; sugars from the 5' end r19 d2, backbone not given here)
transcription activation of the BMP responsive sequence by human activin A after siRNA knockdown (BMP responsive sequence): not affected

human activin AB: Recombinant Human Activin AB (R&D Systems); heterodimer of βA chain and βB chain
transcription activity via ACVR1 (firefly/Renilla luciferase activity, BMP responsive sequence) [1]: significantly increased
transcription activity via ACVR1 (firefly/Renilla luciferase activity, BMP responsive sequence) (wild type ACVR1): not seen

BMPR1A-1: siRNA for BMPR1A (Applied Biosystems S281), SEQ ID NO: 41/42 (chain 1 GGCCGAUAUGGAGAAGUAUTT; chain 2 AUACUUCUCCAUAUCGGCCTT; sugars from the 5' end r19 d2, backbone not given here)
transcription activation of the BMP responsive sequence by human activin A after siRNA knockdown (BMP responsive sequence): not affected
